The record followed here is publication PMC8571951, “An activity‐based bioprobe differentiates a novel small molecule inhibitor from a LOXL2 antibody and provides renewed promise for anti‐fibrotic therapeutic strategies” (Clinical and Translational Medicine, 2021).

Data set [1] addresses T1, native LOXL2 protein in human plasma (Homo sapiens, UniProt Q9Y4K0).
T1 construct: from tissue; host or cells: human plasma (activity) and human serum (protein concentration) from clinical trial subjects
T1 sequence (Q9Y4K0 26-774): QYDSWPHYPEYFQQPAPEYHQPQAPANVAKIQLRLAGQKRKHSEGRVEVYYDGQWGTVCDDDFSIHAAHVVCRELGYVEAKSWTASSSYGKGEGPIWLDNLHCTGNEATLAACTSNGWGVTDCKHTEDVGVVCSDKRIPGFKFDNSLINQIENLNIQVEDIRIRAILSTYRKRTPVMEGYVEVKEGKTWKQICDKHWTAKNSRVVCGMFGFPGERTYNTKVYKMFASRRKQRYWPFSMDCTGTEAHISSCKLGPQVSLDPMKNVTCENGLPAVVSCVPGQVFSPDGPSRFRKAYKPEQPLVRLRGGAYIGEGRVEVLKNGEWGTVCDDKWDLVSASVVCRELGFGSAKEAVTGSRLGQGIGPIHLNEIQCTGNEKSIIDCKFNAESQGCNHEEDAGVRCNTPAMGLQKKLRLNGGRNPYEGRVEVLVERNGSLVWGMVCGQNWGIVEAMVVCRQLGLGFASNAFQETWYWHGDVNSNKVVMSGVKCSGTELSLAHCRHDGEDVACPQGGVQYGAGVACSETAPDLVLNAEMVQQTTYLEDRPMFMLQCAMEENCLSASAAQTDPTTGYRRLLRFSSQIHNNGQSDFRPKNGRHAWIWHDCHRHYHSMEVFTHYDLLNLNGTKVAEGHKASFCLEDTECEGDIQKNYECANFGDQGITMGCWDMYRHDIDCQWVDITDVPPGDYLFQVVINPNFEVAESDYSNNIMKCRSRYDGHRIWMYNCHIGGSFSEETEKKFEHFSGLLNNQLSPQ
The data set is described as follows: PXS-5878/Simoa platform, residual LOXL2 activity in human plasma. The format is biochemical. To be noted: human plasma incubated 30 min; read-out: IC50, inhibition of native LOXL2 in human plasma. How it is done:
(§1) FIGURE 2 Characteristics of PXS‐5338 and inhibition of lysyl oxidase‐like 2 (LOXL2) enzymatic activity in vitro and in vivo. (A) Chemical structure of PXS‐5338. […] (B) Tissue levels of PXS‐5338 measured 1 and 4 h after a single oral dose of 30 mg/kg in the rat. […] Average data from three different animals. (C) Concentration‐dependent inhibition of native […] LOX and rh LOXL1‐4 in a standard Amplex Red assay with 30 min pre‐incubation; n ≥3 independent experiments, standard error of mean (SEM). (D) PXS‐5338 inhibits rh LOXL2 in a time‐dependent manner, with increasing potency observed upon longer incubation with the enzyme. LOXL2 activity data devised from Amplex Red assay using putrescine as substrate and varying pre‐incubation times; n ≥3 independent experiments, standard error of mean (SEM). […] AB0023 and the corresponding isotype control antibody GS834298 were kindly provided by Gilead. Concentration‐response curves for the pan‐LOX inhibitor BAPN and LOXL2‐selective inhibitor PXS‐5338 are included for comparison. Data represented as mean ± SD with n = 5/concentration. […] To enable translation of preclinical data into the clinic, human plasma was incubated with different concentrations of PXS‐5338 for 30 min and the PXS‐5878/Simoa® platform used to measure the residual activity. […]

A short description of data set [2]: Pharmacokinetic profile in healthy human males. The format is in vivo. How it is done:
FIGURE 3 Inhibition of human lysyl oxidase‐like 2 (LOXL2) enzymatic activity by PXS‐5338 in clinical trials. (A) LOXL2 protein concentration in human serum is fairly constant over 24 h. Protein concentrations normalised to pre‐dose levels are plotted over time in healthy subjects treated with different doses (placebo, 100, 200 and 400 mg) of PXS‐5338. Mean ± SD with n = 6/time point. Phase 1 study with healthy male volunteers, ANZCTR ACTRN12617001444370. Legend of (A) also applies to (B) and (C). (B) Dose‐dependent inhibition of LOXL2 in plasma following a single oral dose of 100, 200 mg or 400 mg PXS‐5338. PXS‐5878/Simoa® platform used to measure the residual activity. Mean ± SD with n = 6/time point. (C) Pharmacokinetic (PK) profile of PXS‐5338 in healthy human males. […] (D) Correlation between LOXL2 protein concentration versus % inhibition. Activity data normalised to pre‐dose value.

Data set [3] is described as follows: Tissue levels after single oral dose in the rat. Format: in vivo. To be noted: single oral dose 30 mg/kg, 1 and 4 h. How it is done:
as §1

The next data set is described as follows: Oral bioavailability. To be noted: in vivo.

The structures appear in SMILES notation.

The IC50 is the concentration at which inhibition is half-maximal. With `CC(C)c1c(Cc2ccc(S(C)(=O)=O)nc2)c2ncccc2n1C/C(F)=C/CN` [PXS‐5338], the IC50 in data set [1] is 37 nM. In data set [2], the “Compound half-life in humans” value is “prolonged compound half‐life”. The “Tissue penetration / distribution” value in data set [3] was “good penetration, with preferential distribution to the liver followed by the kidney, lung and heart”. For the same compound, the Oral bioavailability result in “Oral bioavailability” is “good oral bioavailability”.
